According to EP0321273A2, “Thioformamide derivatives” (RHONE POULENC RORER LIMITED, priority 1987, dated 1989):

How the values were obtained:
isolated rat aorta [1] = test: Test A: activity against contractions induced by low K+ concentrations (20 mM K+) in the isolated rat aorta; type: cell-based; conditions: concentration reducing the contraction induced by 20 mM K⁺ by 90%; rat thoracic aorta strips denuded of endothelium, Krebs solution, cumulative concentrations; read-out: Activity Test A EC₉₀
Description: (§1) The test methods used were adapted from those described by Winslow et al [Eur.J.Pharmacol., 131, 219-228 (1986)] and Karaki [J.Pharmacol. Methods, 18, 1-21 (1987)] for differentiating vaso-relaxant activity.
Test A : Activity against contractions induced by low K⁺ concentrations in the isolated rat aorta
Thoracic aorta was removed from rats and transverse strips, denuded of endothelium, were suspended in a bath containing Krebs solution. The tension was recorded and a contraction induced by addition of 20 mM K⁺ (potassium ion) to the bathing solution. The test compound was added to the bath as a solution in increasing cumulative concentration. The concentration in the bathing solution of the test compound which reduced the K⁺-induced contraction by 90% was determined and expressed in µM as the effective concentration (EC₉₀), given in Table I.

isolated rat aorta [2] = test: Test B: activity against contractions induced by high K+ concentrations (60 mM K+) in isolated rat aorta; type: cell-based; conditions: contraction induced by 60 mM K⁺; rat thoracic aorta strips denuded of endothelium, cumulative addition; read-out: concentration in the bath reducing the K⁺-induced contraction by 90%
Description: as §1
Test B : Activity against contractions induced by high K⁺ concentrations in isolated rat aorta
The test method was as in Test A except that contractions were induced by addition of 60 mM K⁺ to the bathing solution. The cumulative addition of solutions of the test compound was conducted and the concentration in the bath reducing the K⁺-induced contraction by 90% was greater than 30µM for Compounds C, D, E, F, I, J and K, and much greater than 30µM for Compound A. Table I

| SMILES | EC90 (isolated rat aorta [1]) | IC90 (isolated rat aorta [2]) |
| --- | --- | --- |
| CNC(=S)C1(c2ccccc2)CCCCC1=O (racemic) [Compound A, (±)-N-methyl-2-oxo-1-phenylcyclohexanecarbothioamide] | 29 µM | > 30 µM |
| CNC(=S)C1(c2ccccc2)CCCCC1=NO (racemic) [Compound C, (±)-anti-N-methyl-2-hydroxyimino-1-phenylcyclohexanecarbothioamide] | > 30 µM | > 30 µM |
| CNC(=S)C1(c2ccccc2)CCCCC1=NOC (racemic) [Compound D, (±)-anti-N-methyl-2-methoxyimino-1-phenylcyclohexanecarbothioamide] | 20 µM | > 30 µM |
| CNC(=S)C1(c2cccc([N+](=O)[O-])c2)CCCCC1=O (racemic) [Compound K, (±)-N-methyl-2-oxo-1-(3-nitrophenyl)cyclohexanecarbothioamide] | 0.7 µM | > 30 µM |
| CNC(=S)C1(c2ccc(Cl)cc2)CCCCC1=O (racemic) [E, (±)-N-methyl-2-oxo-1-(4-chlorophenyl)cyclohexanecarbothioamide] | 12 µM | > 30 µM |
| CNC(=S)C1(c2cccc(C(F)(F)F)c2)CCCCC1=O (racemic) [F, (±)-N-methyl-2-oxo-1-(3-trifluoromethylphenyl)cyclohexanecarbothioamide] | 0.9 µM | > 30 µM |
| CNC(=S)C1(c2ccccc2)CCCCC1=NOCc1ccc(F)cc1 (racemic) [H, (±)-anti-N-methyl-2-(4-fluorobenzyloxyimino)-1-phenylcyclohexanecarbothioamide] | 0.6 µM |  |
| CNC(=S)C1(c2ccc3ccccc3c2)CCCCC1=O (racemic) [I, (±)-N-methyl-2-oxo-1-(2-naphthyl)cyclohexanecarbothioamide] | 2 µM | > 30 µM |
| CNC(=S)C1(c2ccc(Cl)c(Cl)c2)CCCCC1=O (racemic) [J, (±)-N-methyl-2-oxo-1-(3,4-dichlorophenyl)cyclohexanecarbothioamide] | 0.4 µM | > 30 µM |
